Laboratory results taken from patent US6643591B1, “Use of computational and experimental data to model organic compound reactivity in cytochrome P450 mediated reactions and to optimize the design of pharmaceuticals” (University of Pittsburgh, priority 1998, dated 2003).
Values joined by “and” are separate entries in the source; they are usually repeats but may differ in a detail not shown here. Equal entries are not always repeated. Where two headings read alike, the source gives them in different places. Marks after values point to notes of the source that are not given here.

How the values were obtained:
P450cam = target: T1, P450cam (Pseudomonas putida, UniProt P00183); assay: Intramolecular isotope effects with purified P450cam; assay type: in vitro ADME, bacterial; settings: benzylic hydroxylation, -CH2D (d1) substrate
T1 construct: made in house
T1 sequence (P00183 2-415): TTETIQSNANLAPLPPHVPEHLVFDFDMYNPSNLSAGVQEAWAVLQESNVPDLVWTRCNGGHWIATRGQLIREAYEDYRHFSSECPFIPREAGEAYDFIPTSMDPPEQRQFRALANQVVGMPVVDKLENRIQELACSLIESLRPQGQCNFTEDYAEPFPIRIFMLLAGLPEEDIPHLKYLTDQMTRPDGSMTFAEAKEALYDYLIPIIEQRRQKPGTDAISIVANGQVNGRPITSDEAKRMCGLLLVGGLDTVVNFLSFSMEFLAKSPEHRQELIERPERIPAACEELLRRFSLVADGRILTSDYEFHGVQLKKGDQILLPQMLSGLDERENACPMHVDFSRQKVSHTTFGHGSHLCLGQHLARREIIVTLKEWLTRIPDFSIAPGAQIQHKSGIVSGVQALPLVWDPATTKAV
Experimental: For the intramolecular isotope effect experiments herein, a substrate is chosen that contains at least two symmetrical sites, with at least one site, but not all, isotopically labeled. A single concentration of substrate is incubated with enzyme, and the ratio of labeled to unlabeled compound in the isotopic mixture of products (or the corresponding rates of formation of products) are used to calculate a KIE.
Construction of expression plasmids for P450cam, Pd, and PdR as well as protein expression and purification have been described previously (Shimoji et al. (1998) Biochemistry 37, 8848-52).
Enzyme incubations with monodeuterated toluenes and p-xylene-α-^2H1-α′-^2H1 were performed in triplicate at a single substrate concentration of 0.25 mM. […] The kinetic parameters for metabolism of the substituted toluenes were determined by GC-MS analysis of the M-(dimethylsilyl) derivative of the product benzyl alcohols (see below).

CYP1A2 [1] = target: T2, CYP1A2 (Homo sapiens, UniProt P05177)
T2 sequence (P05177 1-516): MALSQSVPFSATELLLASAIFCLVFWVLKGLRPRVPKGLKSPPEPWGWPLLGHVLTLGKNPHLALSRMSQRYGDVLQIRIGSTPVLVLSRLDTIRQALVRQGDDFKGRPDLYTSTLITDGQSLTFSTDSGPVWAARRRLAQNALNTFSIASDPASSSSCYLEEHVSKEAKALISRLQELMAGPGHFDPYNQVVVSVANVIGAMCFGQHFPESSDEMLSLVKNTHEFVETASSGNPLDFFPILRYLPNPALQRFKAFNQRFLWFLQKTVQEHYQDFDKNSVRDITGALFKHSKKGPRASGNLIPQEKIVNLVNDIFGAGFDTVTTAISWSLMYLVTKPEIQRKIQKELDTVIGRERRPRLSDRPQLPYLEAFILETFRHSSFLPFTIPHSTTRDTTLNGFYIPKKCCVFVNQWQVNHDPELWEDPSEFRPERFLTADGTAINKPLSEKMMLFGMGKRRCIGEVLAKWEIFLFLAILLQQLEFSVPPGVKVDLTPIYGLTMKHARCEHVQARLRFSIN

CYP2B1 = target: T3, CYP2B1 (Rattus norvegicus, UniProt P00176)
T3 sequence (P00176 1-491): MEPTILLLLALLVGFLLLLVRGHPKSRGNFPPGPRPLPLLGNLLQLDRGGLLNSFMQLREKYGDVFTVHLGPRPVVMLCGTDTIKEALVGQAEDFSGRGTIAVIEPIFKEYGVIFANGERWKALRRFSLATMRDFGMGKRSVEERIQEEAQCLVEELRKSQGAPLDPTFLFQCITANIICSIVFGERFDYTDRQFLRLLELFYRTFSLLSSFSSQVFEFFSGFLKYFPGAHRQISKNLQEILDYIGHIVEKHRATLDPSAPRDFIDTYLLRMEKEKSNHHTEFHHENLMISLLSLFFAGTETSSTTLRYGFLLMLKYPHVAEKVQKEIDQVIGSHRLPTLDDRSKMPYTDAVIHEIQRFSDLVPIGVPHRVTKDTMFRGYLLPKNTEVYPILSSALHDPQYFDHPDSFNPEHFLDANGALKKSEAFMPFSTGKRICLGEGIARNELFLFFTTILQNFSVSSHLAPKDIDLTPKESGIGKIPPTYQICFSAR

CYP2C9 = CYP2C9 (Homo sapiens, UniProt P11712)
CYP2C9, sequence (P11712 whole entry): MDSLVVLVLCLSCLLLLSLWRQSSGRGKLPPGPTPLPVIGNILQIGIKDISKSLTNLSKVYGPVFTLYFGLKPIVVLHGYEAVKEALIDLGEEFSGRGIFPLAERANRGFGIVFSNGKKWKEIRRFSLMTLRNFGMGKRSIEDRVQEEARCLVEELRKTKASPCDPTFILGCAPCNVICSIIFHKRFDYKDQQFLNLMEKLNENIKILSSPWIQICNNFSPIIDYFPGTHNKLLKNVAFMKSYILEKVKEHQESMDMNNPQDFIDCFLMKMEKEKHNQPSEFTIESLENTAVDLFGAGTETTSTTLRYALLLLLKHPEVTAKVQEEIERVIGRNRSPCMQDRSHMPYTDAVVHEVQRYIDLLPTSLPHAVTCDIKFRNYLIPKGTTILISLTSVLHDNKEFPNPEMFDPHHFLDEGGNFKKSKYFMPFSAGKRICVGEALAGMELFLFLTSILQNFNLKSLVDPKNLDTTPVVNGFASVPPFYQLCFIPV

CYP2E1 = CYP2E1 (Homo sapiens, UniProt P05181)
CYP2E1, sequence (P05181 whole entry): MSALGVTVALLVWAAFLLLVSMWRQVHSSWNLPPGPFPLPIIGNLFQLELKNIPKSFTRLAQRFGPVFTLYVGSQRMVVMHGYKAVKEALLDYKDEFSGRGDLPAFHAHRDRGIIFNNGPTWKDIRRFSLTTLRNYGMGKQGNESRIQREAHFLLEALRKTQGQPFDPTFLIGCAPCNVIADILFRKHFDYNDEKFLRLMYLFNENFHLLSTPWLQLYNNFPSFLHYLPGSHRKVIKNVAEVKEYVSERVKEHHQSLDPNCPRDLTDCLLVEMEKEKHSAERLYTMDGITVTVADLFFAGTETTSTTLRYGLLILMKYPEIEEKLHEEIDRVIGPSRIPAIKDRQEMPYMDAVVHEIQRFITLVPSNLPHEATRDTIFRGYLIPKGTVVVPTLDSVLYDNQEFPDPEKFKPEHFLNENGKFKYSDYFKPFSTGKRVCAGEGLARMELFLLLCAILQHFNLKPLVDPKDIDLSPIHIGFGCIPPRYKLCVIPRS

CYP2B6 = target: T4, CYP2B6 (Homo sapiens, UniProt P20813)
T4 sequence (P20813 1-491): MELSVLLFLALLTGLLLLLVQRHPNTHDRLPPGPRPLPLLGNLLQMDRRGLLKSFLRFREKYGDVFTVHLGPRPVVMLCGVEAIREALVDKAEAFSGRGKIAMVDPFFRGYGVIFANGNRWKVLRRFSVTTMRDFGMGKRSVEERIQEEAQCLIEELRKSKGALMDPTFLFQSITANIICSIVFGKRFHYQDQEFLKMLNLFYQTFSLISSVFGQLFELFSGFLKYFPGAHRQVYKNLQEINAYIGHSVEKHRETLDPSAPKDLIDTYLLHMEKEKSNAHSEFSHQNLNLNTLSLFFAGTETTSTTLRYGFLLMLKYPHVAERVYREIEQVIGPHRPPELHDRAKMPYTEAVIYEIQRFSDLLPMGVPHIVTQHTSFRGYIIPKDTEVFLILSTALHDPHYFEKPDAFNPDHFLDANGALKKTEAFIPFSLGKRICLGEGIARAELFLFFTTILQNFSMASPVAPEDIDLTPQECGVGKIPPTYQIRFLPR

CYP4B1 = CYP4B1 (Oryctolagus cuniculus, UniProt P15128)
CYP4B1, sequence (P15128 whole entry): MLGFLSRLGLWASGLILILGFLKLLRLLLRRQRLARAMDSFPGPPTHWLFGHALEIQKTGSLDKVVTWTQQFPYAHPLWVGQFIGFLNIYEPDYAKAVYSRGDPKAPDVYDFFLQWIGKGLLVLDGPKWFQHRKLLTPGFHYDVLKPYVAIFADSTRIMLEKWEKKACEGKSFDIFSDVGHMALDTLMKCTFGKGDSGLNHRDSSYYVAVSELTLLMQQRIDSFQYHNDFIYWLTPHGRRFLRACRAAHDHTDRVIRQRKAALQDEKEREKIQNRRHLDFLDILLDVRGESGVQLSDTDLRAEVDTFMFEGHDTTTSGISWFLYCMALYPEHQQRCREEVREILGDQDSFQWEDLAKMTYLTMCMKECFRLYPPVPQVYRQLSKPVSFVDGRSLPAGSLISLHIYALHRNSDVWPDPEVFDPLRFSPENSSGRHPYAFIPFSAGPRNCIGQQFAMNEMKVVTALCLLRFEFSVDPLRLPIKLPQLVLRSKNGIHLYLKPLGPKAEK

CYP1A2 [2] = settings: O-deethylation favored; cited from earlier work
CYP [3] = assay: Experimental product ratios for aromatic oxidation
Source text: These equations may be solved with the data in Table 4, which provides experimental data for aromatic oxidation reactions with a number of substrates.
Experimental metabolite ratios may also be used to parameterize the aromatic oxidation reaction in a theoretical model for CYP reactions. As with hydrogen atom abstraction discussed in the previous Examples, experimental ratios of aromatic oxidation to an alternate position may be determined using various CYP enzymes. These substrates were chosen based on their small size, the presence of an alternate position for metabolism, and their hydrophobicity.
In order for the substrates to be useful, the average of the rotation rates in the active sites should be rapid. […] Several human expressed CYP enzymes were used in these studies, including CYP1A1, 1A2, 2A6, 2B6, 2C8, 2C9, 2D6, 2E1, 3A4, and 3A5. The use of multiple enzymes insures that a reasonable average of any orientation preferences within the active site (see FIG. 1).

CYP [4] = settings: cited from earlier work
CYP [5] = assay: Activation energy differences from experimental regioselectivity of substrates in rapid equilibrium; assay type: in vitro ADME; design: unit not given here; settings: difference in activation energy calculated by the experimental regioselectivity
Source text: Five substrates shown to undergo rapid equilibrium between positions of metabolism have been used to prepare data for regression and then correlation with Eq. 1. The differences in activation energy calculated by the experimental regioselectivity of the substrates, along with the differences in AM1 activation enthalpies, are given in Table 1. Regression of the experimental data gives a slope correction for AM1 activation energies of 0.75±0.20.

[2H]Cc1ccc(C[2H])cc1 [CH2D, p-Xylene-α-^2H1-α′-^2H1]
Intramolecular KIE (kH/kD) (P450cam): 6.0 | Intramolecular KIE (kH/kD) (CYP1A2 [1]): 5.59 (1) | Intramolecular KIE (kH/kD) (CYP2B1): 6.23 | Intramolecular KIE (kH/kD) (CYP2C9): 5.9 | Intramolecular KIE (kH/kD) (CYP2E1): 5.45 (5)

[2H]C([2H])([2H])Oc1ccc(C)cc1 [p-Methylanisole-α-^2H3]
nmol p-CR (CYP2B1): 3.3* nmol | nmol p-MBA (CYP2B1): 0.9* nmol | nmol total TP (CYP2B1): 4.2* nmol | nmol p-CR (CYP2B6): 9* nmol | nmol p-MBA (CYP2B6): 2.39* nmol | nmol total TP (CYP2B6): 11 nmol | Vmax (CYP2E1): 18.0 nM/min | nmol p-CR (CYP2E1): 18.2* nmol | nmol p-MBA (CYP2E1): 10.6* nmol | nmol total TP (CYP2E1): 29 nmol | nmol p-CR (CYP4B1): 52* nmol | nmol p-MBA (CYP4B1): 48* nmol | nmol total TP (CYP4B1): 100* nmol

CCOc1ccc2ccc(=O)oc2c1 [7-ethoxycoumarin]
Energy difference between O-deethylation and aromatic hydroxylation pathways (CYP1A2 [2]): about 1.8 kcal/mol

Cc1ccc(Cl)cc1 [Cl, p-chlorotoluene]
Intramolecular KIE (kH/kD) (P450cam): 6.5 | Intermolecular Competitive ^D(V/K) (CYP2B1): 3.21 ± 0.02 | Intramolecular KIE (kH/kD) (CYP2B1): 8.1 and 8.06 ± 0.12 | Intramolecular KIE (kH/kD) (CYP2C9; human, pH 7.4): 6.2 | Intermolecular Noncompetitive ^DV (CYP2E1; pH 7.4): 1.61 ± 0.01

COc1ccccc1 [Anisole]
Experimental Ratio (CYP [3]; human): 10.6 | Relative difference in energy for p-hydroxylation and demethylation (CYP [4]; calculated from the product ratios of Lindsay Smith et al.): 0.6 kcal/mol | Intermolecular isotope effect (Lindsay Smith et al.) (CYP [4]; deuteration of the methyl group): 7 | Ratio of p-hydroxyanisole to phenol, average (CYP [4]; four microsomal systems (Lindsay Smith)): 2.9

CCCC(CCC)C(=O)O [Valproate]
ΔΔG (experimental) (CYP [5]): −2.48

[2H]C([2H])([2H])c1ccccc1OC [o-Methylanisole-α-^2H3]
nmol 4M3MPh (CYP1A2 [1]): 11.5* nmol | nmol TP (CYP1A2 [1]): 17.2 nmol | nmol o-CR (CYP1A2 [1]): 4.2* nmol | nmol o-MBA (CYP1A2 [1]): 1.52* nmol | nmol 4M3MPh (CYP2B1): 13* nmol | nmol TP (CYP2B1): 17* nmol | nmol o-CR (CYP2B1): 2.8* nmol | nmol o-MBA (CYP2B1): 0.36* nmol | nmol 4M3MPh (CYP2B6): 3.3 nmol | nmol TP (CYP2B6): 22 nmol | nmol o-CR (CYP2B6): 17* nmol | nmol o-MBA (CYP2B6): 0.95* nmol | nmol TP (CYP2C9): 3.9* nmol | nmol o-CR (CYP2C9): 1.4* nmol | nmol o-MBA (CYP2C9): 0.7* nmol | nmol 4M3MPh (CYP2E1): 13* nmol | nmol TP (CYP2E1): 19* nmol | nmol o-CR (CYP2E1): 4.7* nmol | nmol o-MBA (CYP2E1): 0.99* nmol | nmol 4M3MPh (CYP4B1): 1.9* nmol | nmol TP (CYP4B1): 55 nmol | nmol o-CR (CYP4B1): 50* nmol | nmol o-MBA (CYP4B1): 3.5* nmol

CCCCCCCC [Octane]
ΔΔG (experimental) (CYP [5]): −3.13 | Average P value (primary KIE) (CYP [4]; Jones et al. 1987): 7.6

[2H]C([2H])([2H])c1ccc(Br)cc1 [Br-d3]
V/K (CYP2E1): 0.027 min⁻¹ | Vmax (CYP2E1): 54.8 nM/min

Cc1ccc(Br)cc1 [Br, p-bromotoluene]
Intramolecular KIE (kH/kD) (P450cam): 8.3 | Intramolecular KIE (kH/kD) (CYP1A2 [1]; pH 7.4): 6.83 (8) | Intramolecular KIE (kH/kD) (CYP2B1): 8.02 | Intramolecular KIE (kH/kD) (CYP2C9; human, pH 7.4): 6.9 | Intermolecular Noncompetitive ^DV (CYP2E1; pH 7.4): 1.07 ± 0.04

CCc1ccccc1 [Ethylbenzene]
Experimental Ratio (CYP [3]; Arom/benz): 0.086

[2H]C([2H])([2H])c1ccc(CCl)cc1 [α-Chloromethyl-p-xylene-α′-^2H3]
nmol TP (CYP1A2 [1]): 47 nmol | nmol p-Alc (CYP1A2 [1]): 1.3* nmol | nmol p-Ald + TolA (CYP1A2 [1]): 46 nmol | nmol TP (CYP2B1): 21.3 nmol | nmol p-Alc (CYP2B1): 1.3* nmol | nmol p-Ald + TolA (CYP2B1): 20.0* nmol | nmol TP (CYP2B6): 14* nmol | nmol p-Alc (CYP2B6): 1.82* nmol | nmol p-Ald + TolA (CYP2B6): 12* nmol | nmol TP (CYP2C9): 1.8* nmol | nmol p-Alc (CYP2C9): 0.10* nmol | nmol p-Ald + TolA (CYP2C9): 1.7* nmol | nmol TP (CYP2E1): 31 nmol | nmol p-Alc (CYP2E1): 0.78* nmol | nmol p-Ald + TolA (CYP2E1): 30 nmol | nmol TP (CYP4B1): 17.0* nmol | nmol p-Alc (CYP4B1): 15.2* nmol | nmol p-Ald + TolA (CYP4B1): 1.87* nmol

Cc1ccc(C)cc1 [CH3, p-xylene]
Intermolecular Competitive ^D(V/K) (CYP2E1; pH 7.4): 1.18 ± 0.03 | Intermolecular Noncompetitive ^D(V/K) (CYP2E1; pH 7.4): 1.19 ± 0.01 | Intermolecular Noncompetitive ^DV (CYP2E1; pH 7.4): 1.05 ± 0.03 | Intramolecular KIE (kH/kD) (CYP2E1; pH 7.4): 5.45 ± 0.05 | Benzylic hydroxylation, share of total oxidation / metabolism (CYP [4]; depending on the source of CYP): ~95%

Cc1ccc(C#N)cc1 [CN, p-tolunitrile]
Intramolecular KIE (kH/kD) (P450cam): 11.6 | Intramolecular KIE (kH/kD) (CYP1A2 [1]; pH 7.4): 10.1 (2) | Intramolecular KIE (kH/kD) (CYP2B1): 11.9 | Intramolecular KIE (kH/kD) (CYP2C9; human, pH 7.4): 11.1 | Intramolecular KIE (kH/kD) (CYP2E1; pH 7.4): 10.1 (1)

[2H]C([2H])([2H])c1ccc(Cl)cc1 [Cl-d3]
V/K (CYP2E1): 0.020 min⁻¹ | Vmax (CYP2E1): 31.4 nM/min

Cc1ccccc1 [H, toluene]
Intramolecular KIE (kH/kD) (CYP1A2 [1]; pH 7.4): 6.1 (4) | Intramolecular KIE (kH/kD) (CYP2B1): 7 | Intramolecular KIE (kH/kD) (CYP2E1; pH 7.4): 6.1 (1) | Isotope effect measured by White and McCarthy (CYP [4]): 2
